Measurements published in patent publication US11351168B1 (Celgene CAR LLC, priority 2008, dated 2022).

system: BTK signaling in Ramos cells; experiment: BTK Ramos cellular assay (phosphorylation of BTK substrate PLCγ2); assay type: cell-based, human; details: 1 hour compound, anti-IgM stimulation, read-out: BTK Inhibition (Ramos cellular)
Procedure: Compounds I-2, I-4, and I-7 were assayed in Ramos human Burkitt lymphoma cells. Ramos cells were grown in suspension in T225 flasks, spun down, resuspended in 50 ml serum-free media and incubated for 1 hour. Compound was added to Ramos cells in serum free media to a final concentration of 1, 0.1, 0.01, or 0.001 μM. Ramos cells were incubated with compound for 1 hour, washed again and resuspended in 100 ul serum-free media. Cells were then stimulated with 1 μg of goat F(ab′)2 Anti-Human IgM and incubated on ice for 10 minutes to activate B cell receptor signaling pathways. After 10 minutes, the cells were washed once with PBS and then lysed on ice with Invitrogen Cell Extraction buffer. 16 μg total protein from lysates were loaded on gel and blots were probed for phosphorylation of the BTK substrate PLCγ2.

| Structure (SMILES) | IC50 |
| --- | --- |
| C=CC(=O)N1CCOc2ccc(Nc3nc(Nc4ccc5cn[nH]c5c4)ncc3C(C)=O)cc21 [Compound I-153, 1-{6-[5-Acetyl-2-(1H-indazol-6-ylamino)-pyrimidin-4-ylamino]-2,3-dihydro-benzo[1,4]oxazin-4-yl}-propenone] | < 10 nM |

same assay, conditions: Homo sapiens, 1 hour compound, anti-IgM stimulation, read-out: BTK Inhibition (Ramos cellular)

| Structure (SMILES) | IC50 |
| --- | --- |
| C=CC(=O)Nc1cc(Nc2nc(Nc3ccc(OC(C)C)nc3)ncc2F)ccc1Cl [Compound I-107, N-(2-chloro-5-(5-fluoro-2-(6-isopropoxypyridin-3-ylamino)pyrimidin-4-ylamino)phenyl)acrylamide] | 10 to 100 nM |
| C=C(C)C(=O)c1ccc(Nc2nc(Nc3ccccc3)ncc2F)cc1 [Compound I-185, 1-(4-(5-fluoro-2-(phenylamino)pyrimidin-4-ylamino)phenyl)-2-methylprop-2-en-1-one] | 100 to 1000 nM |
| [2H]C([2H])([2H])Oc1ccc(Nc2ncc(F)c(Nc3cccc(NC(=O)C=C)c3)n2)cn1 [Compound I-95, N-(3-(5-fluoro-2-(6-(trideutereomethoxy)pyridine-3-ylamino)pyrimidin-4-ylamino)phenyl)acrylamide] | < 10 nM |
| C=CC(=O)Nc1cccc(Nc2nc(Nc3ccc(OCC(C)(C)O)c(F)c3)ncc2F)c1 [Compound I-315, N-(3-(5-fluoro-2-(3-fluoro-4-(2-hydroxy-2-methylpropoxy)phenylamino)pyrimidin-4-ylamino)phenyl)acrylamide] | < 10 nM |
| C=CC(=O)Nc1cccc(Nc2ncc(F)c(Nc3cccc(C)c3)n2)c1 [Compound I-3, N-(3-(5-fluoro-4-(m-tolylamino)pyrimidin-2-ylamino)phenyl) acrylamide] | 10 to 100 nM |
| C=CC(=O)Nc1ccc(Nc2nc(Nc3ccccc3)ncc2C)cc1 [Compound I-39, N-(4-(5-methyl-2-(phenylamino)pyrimidin-4-ylamino)phenyl) acrylamide] | 10 to 100 nM |
| C=CC(=O)Nc1cccc(Nc2nc(Nc3ccc(OCCOC)cc3)ncc2C2CC2)c1 [Compound I-139, N-(3-(5-cyclopropyl-2-(4-(2-methoxyethoxy)phenylamino)pyrimidin-4-ylamino)phenyl)acrylamide] | 10 to 100 nM |
| C=CC(=O)Nc1cccc(Oc2nc(Nc3cccc(OC)c3)ncc2C(=O)NC2CC2)c1 [Compound I-177, 4-(3-acrylamidophenoxy)-2-(3-methoxyphenylamino)-pyrimidine-5-carboxylic acid cyclopropylamide] | 100 to 1000 nM |
| C=CC(=O)N1CCOc2ccc(Nc3nc(Nc4ccc(N5CCCC5=O)cc4)ncc3C(C)=O)cc21 [Compound I-152, 1-{4-[5-Acetyl-4-(4-acryloyl-3,4-dihydro-2H-benzo[1,4]oxazin-6-ylamino)-pyrimidin-2-ylamino]-phenyl}-pyrrolidin-2-one] | 10 to 100 nM |
| C=CC(=O)N1CCOc2ccc(Nc3nc(Nc4ccc5c(c4)CC(=O)N5)ncc3C(C)=O)cc21 [Compound I-129, 5-[5-Acetyl-4-(4-acryloyl-3,4-dihydro-2H-benzo[1,4]oxazin-6-ylamino)-pyrimidin-2-ylamino]-1,3-dihydro-indol-2-one] | < 10 nM |
| C=CC(=O)Nc1cccc(Nc2nc(Nc3ccc(OC)nc3)ncc2C(C)=O)c1 [Compound I-189, N-{3-[5-Acetyl-2-(6-methoxy-pyridin-3-ylamino)-pyrimidin-4-ylamino]-phenyl}-acrylamide] | 10 to 100 nM |
| C=CC(=O)N1CCC[C@@H](Nc2nc(Nc3cccc(OCCN4CCOCC4)c3)ncc2F)C1 [Compound I-135, (R)-1-(3-(5-fluoro-2-(3-(2-morpholinoethoxy)phenylamino)pyrimidin-4-ylamino)piperidin-1-yl)prop-2-en-1-one] | 10 to 100 nM |
| C=CC(=O)Nc1cccc(Nc2nc(Nc3ccc4c(c3)NCCO4)ncc2F)c1 [Compound I-174] | < 10 nM |
| C=CC(=O)Nc1cccc(Nc2nc(Nc3cccc(OCCCNC(=O)OC(C)(C)C)c3)ncc2C)c1 [Compound I-45, tert-butyl 3-(3-(4-(3-acrylamidophenylamino)-5-methylpyrimidin-2-ylamino)phenoxy)propylcarbamate] | < 10 nM |
| C=CC(=O)Nc1cccc(Oc2nc(Nc3ccc(OC)nc3)ncc2C(=O)NC2CC2)c1 [Compound I-176, 4-(3-acrylamidophenoxy)-2-(6-methoxypyridin-3-ylamino)-pyrimidine-5-carboxylic acid cyclopropylamide] | 100 to 1000 nM |
| C=CC(=O)N1CCOc2ccc(Nc3nc(Nc4ccc(OCCO)nc4)ncc3C(C)=O)cc21 [Compound I-128, 1-(6-{5-Acetyl-2-[6-(2-hydroxy-ethoxy)-pyridin-3-ylamino]-pyrimidin-4-ylamino}-2,3-dihydro-benzo[1,4]oxazin-4-yl)-propenone] | 10 to 100 nM |
| C=CC(=O)Nc1cccc(Nc2nc(Nc3cccc(OCCCn4ccnc4)c3)ncc2F)c1 [Compound I-204, N-(3-(2-(3-(3-(1H-imidazol-1-yl)propoxy)phenylamino)-5-fluoropyrimidin-4-ylamino)phenyl)acrylamide] | < 10 nM |

| Structure (SMILES) | IC50 |
| --- | --- |
| C=CC(=O)Nc1cccc(Nc2nc(Nc3ccc(OC)nc3)ncc2C2CC2)c1 [Compound I-167, N-(3-(5-cyclopropyl-2-(6-methoxypyridin-3-ylamino)pyrimidin-4-ylamino)phenyl)acrylamide] | 10 to 100 nM |
| C=CC(=O)N1CCOc2ccc(Nc3nc(Nc4ccc(OC)nc4)ncc3C(C)=O)cc21 [Compound I-170, 1-{6-[5-Acetyl-2-(6-methoxy-pyridin-3-ylamino)-pyrimidin-4-ylamino]-2,3-dihydro-benzo[1,4]oxazin-4-yl}-propenone] | 10 to 100 nM |
| C=CC(=O)Nc1cccc(Nc2nc(Nc3ccc(OCC(C)(C)O)nc3)ncc2F)c1 [Compound I-313, N-(3-(5-fluoro-2-(6-(2-hydroxy-2-methylpropoxy)pyridin-3-ylamino)pyrimidin-4-ylamino)phenyl)acrylamide] | < 10 nM |
| C=CC(=O)Nc1cccc(Oc2nc(Nc3ccc(OCCOC)cc3)ncc2C2CC2)c1 [Compound I-131, N-(3-(5-cyclopropyl-2-(4-(2-methoxyethoxy)phenylamino)pyrimidin-4-yloxy)phenyl)acrylamide] | < 10 nM |
| COc1ccc(Nc2ncc(F)c(Nc3cccc(NC(=O)/C=C/CN(C)C)c3)n2)cn1 [Compound I-125, (E)-4-(dimethylamino)-N-(3-(5-fluoro-2-(6-methoxypyridin-3-ylamino)pyrimidin-4-ylamino)phenyl)but-2-enamide] | 10 to 100 nM |
| C=CC(=O)Nc1cccc(Nc2nc(Nc3ccc4c(c3)N(C)CCO4)ncc2F)c1 [Compound I-126, N-(3-(2-(4-methyl-2,3-dihydrobenzo[1,4]oxazin-6-yl)amino-5-fluoropyrimidin-4-ylamino)phenyl)acrylamide] | 10 to 100 nM |
| C=CC(=O)Nc1cccc(Nc2nc(Nc3ccc(OC)c(OC)c3)ncc2F)c1 [Compound I-134, 4-(3acrylamidophenylamino)-5-fluoro-2-(3,4-dimethoxyphenylamino)-pyrimidine] | 10 to 100 nM |
| C=CC(=O)Nc1cccc(Nc2nc(Nc3ccc(OC4CCC4)nc3)ncc2F)c1 [Compound I-79, N-(3-(2-(6-cyclobutoxypyridin-3-ylamino)-5-fluoropyrimidin-4-ylamino)phenyl)acrylamide] | < 10 nM |
| C=CC(=O)Nc1cccc(Nc2nc(Nc3ccc(Cl)c(OCC(C)(C)O)c3)ncc2F)c1 [Compound I-249, N-(3-(2-(4-chloro-3-(2-hydroxy-2-methylpropoxy)phenylamino)-5-fluoropyrimidin-4-ylamino)phenyl)acrylamide] | < 10 nM |
| C=CC(=O)Nc1cccc(Nc2nc(Nc3cccc(OCC(=O)N4CCOCC4)c3)ncc2F)c1 [Compound I-110, N-(3-(5-fluoro-2-(3-(2-morpholino-2-oxoethoxy)phenylamino)pyrimidin-4-ylamino)phenyl)acrylamide] | 10 to 100 nM |
| C=CC(=O)Nc1cccc(Nc2nc(Nc3ccc(O[C@@H]4CCOC4)c(F)c3)ncc2F)c1 [Compound I-316, (R)—N-(3-(5-fluoro-2-(3-fluoro-4-(tetrahydrofuran-3-yloxy)phenylamino)pyrimidin-4-ylamino)phenyl)acrylamide] | < 10 nM |
| C=CC(=O)N1CCOc2ccc(Nc3nc(Nc4ccc(N(C)C(=O)C(F)(F)F)nc4)ncc3C(C)=O)cc21 [Compound I-142, N-(5-(5-acetyl-4-(4-acryloyl-3,4-dihydro-2H-benzo[b][1,4]oxazin-6-ylamino)pyrimidin-2-ylamino)pyridin-2-yl)-2,2,2-trifluoro-N-methylacetamide] | 10 to 100 nM |
| C=CC(=O)Nc1cccc(Nc2nc(Nc3ccc(N(C)CCOC)nc3)ncc2F)c1 [Compound I-77, N-(3-(5-fluoro-2-(6-((2-methoxyethyl)(methyl)amino)pyridin-3-ylamino)pyrimidin-4-ylamino)phenyl)acrylamide] | < 10 nM |
| C=CC(=O)Nc1cccc(Nc2nc(Nc3cccc(OC)c3)ncc2C(N)=O)c1 [Compound I-210, 4-(3-acrylamidophenylamino)-2-(3-methoxyphenylamino)pyrimidine-5-carboxamide] | < 10 nM |
| C=CC(=O)Nc1cccc(Nc2nc(Nc3ccc(OCCCS(C)(=O)=O)c(F)c3)ncc2F)c1 [Compound I-318, N-(3-(5-fluoro-2-(3-fluoro-4-(3-(methylsulfonyl)propoxy)phenylamino)pyrimidin-4-ylamino)phenyl)acrylamide] | < 10 nM |
| C=CC(=O)N1CCOc2ccc(Nc3nc(Nc4ccc(OC)nc4)ncc3F)cc21 [Compound I-194, 1-(6-(5-fluoro-2-(6-methoxypyridin-3-ylamino)pyrimidin-4-ylamino)-2H-benzo[b][1,4]oxazin-4(3H)-yl)prop-2-en-1-one] | < 10 nM |
| C=CC(=O)Nc1cccc(Oc2nc(Nc3ccc(OC)nc3)ncc2C)c1 [Compound I-186, N-(3-(2-(6-methoxypyridin-3-ylamino)-5-methylpyrimidin-4-yloxy)phenyl)acrylamide] | < 10 nM |
